In the assay the target is T1, AM2 receptor (1321N1 cells transfected with CALCRL+RAMP3) (Homo sapiens, UniProt O60896+Q16602).
T1 construct: host or cells: 1321N1 cells
T1 sequence (Q16602 23-461): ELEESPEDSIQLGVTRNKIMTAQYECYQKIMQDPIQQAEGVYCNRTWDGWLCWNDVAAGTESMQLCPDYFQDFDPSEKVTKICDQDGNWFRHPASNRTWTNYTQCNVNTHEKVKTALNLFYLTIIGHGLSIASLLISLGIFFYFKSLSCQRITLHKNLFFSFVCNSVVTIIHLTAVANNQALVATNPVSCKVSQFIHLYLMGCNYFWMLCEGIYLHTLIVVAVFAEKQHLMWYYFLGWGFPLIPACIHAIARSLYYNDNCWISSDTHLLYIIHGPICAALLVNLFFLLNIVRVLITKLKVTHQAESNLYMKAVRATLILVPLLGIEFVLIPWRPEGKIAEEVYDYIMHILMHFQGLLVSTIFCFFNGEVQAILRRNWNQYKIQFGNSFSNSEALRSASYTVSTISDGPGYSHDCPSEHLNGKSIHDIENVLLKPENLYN
T1 sequence (O60896 24-148): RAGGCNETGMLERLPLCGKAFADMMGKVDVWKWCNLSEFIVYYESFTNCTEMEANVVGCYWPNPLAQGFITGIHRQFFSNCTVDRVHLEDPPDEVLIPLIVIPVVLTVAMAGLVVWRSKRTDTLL
Kind of assay: AM2 receptor inhibition, LANCE cAMP agonist-antagonist competition assay. The format is cell-based. To be noted: inhibition of AM induced cAMP activation, read-out: AM2 D2 protocol: pIC50 (converted). The essentials:
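1321N1 cells co-expressing CALCRL and RAMP3 (2500/well) were preincubated with compound for 30 min at room temperature, then stimulated with adrenomedullin at its EC50 dose for 15 min in HBSS/HEPES/BSA buffer, pH 7.4. cAMP was measured by LANCE TR-FRET and normalised to forskolin (100%) and vehicle (0%) controls.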
`CCC1(C(=O)N(CC(=O)Nc2ccc3c(c2)C[C@@]2(C3)C(=O)Nc3ncccc32)Cc2ccccc2CNC)CCN(C(=O)COCCOCCOCCOCCOCCOCCOC)CC1` [Example 97, (R)-1-(2,5,8,11,14,17,20-Heptaoxadocosan-22-oyl)-4-ethyl-N-(2-((methylamino)methyl)benzyl)-N-(2-oxo-2-((2′-oxo-1,1′,2′,3-tetrahydrospiro[indene-2,3′-pyrrolo[2,3-b]pyridin]-5-yl)amino)ethyl)piperidine-4-carboxamide]: the IC50 is 8.71 nM.
To `CCC1(C(=O)N(CC(=O)Nc2ccc3c(c2)C[C@@]2(C3)C(=O)Nc3ncccc32)Cc2ccccc2CNC)CCN(C(=O)C(C)(C)C(F)(F)F)CC1` [Example 98, (R)-4-Ethyl-N-(2-((methylamino)methyl)benzyl)-N-(2-oxo-2-((2′-oxo-1,1′,2′,3-tetrahydrospiro[indene-2,3′-pyrrolo[2,3-b]pyridin]-5-yl)amino)ethyl)-1-(3,3,3-trifluoro-2,2-dimethylpropanoyl)piperidine-4-carboxamide] belongs 61.7 nM; to `CCC1(C(=O)N(CC(=O)Nc2ccc3c(c2)C[C@@]2(C3)C(=O)Nc3ncccc32)Cc2ccccc2CNC)CCN(C(=O)N(C)C)CC1` [Example 99, (R)-4-Ethyl-N1, N1-dimethyl-N4-(2-((methylamino)methyl)benzyl)-N4-(2-oxo-2-((2′-oxo-1,1′,2′,3-tetrahydrospiro[indene-2,3′-pyrrolo[2,3-b]pyridin]-5-yl)amino)ethyl)piperidine-1,4-dicarboxamide], 1.45 nM; to `CCC1(C(=O)N(CC(=O)Nc2ccc3c(c2)C[C@@]2(C3)C(=O)Nc3ncccc32)Cc2ccccc2CNC)CCN(C(=O)NC)CC1` [Example 100], 4.07 nM.
For `CCC1(C(=O)N(CC(=O)Nc2ccc3c(c2)C[C@@]2(C3)C(=O)Nc3ncccc32)Cc2ccccc2CNC)CCN(C(=O)NC(C)C)CC1` [Example 101, (R)-4-Ethyl-N1-isopropyl-N4-(2-((methylamino)methyl)benzyl)-N4-(2-oxo-2-((2′-oxo-1,1′,2′,3-tetrahydrospiro[indene-2,3′-pyrrolo[2,3-b]pyridin]-5-yl)amino)ethyl)piperidine-1,4-dicarboxamide] the value was 1.41 nM; for `CCC1(C(=O)N(CC(=O)Nc2ccc3c(c2)C[C@@]2(C3)C(=O)Nc3ncccc32)Cc2ccccc2CNC)CCN(C(=O)N2CCCC2)CC1` [Example 102, (R)-4-Ethyl-N-(2-((methylamino)methyl)benzyl)-N-(2-oxo-2-((2′-oxo-1,1′,2′,3-tetrahydrospiro[indene-2,3′-pyrrolo[2,3-b]pyridin]-5-yl)amino)ethyl)-1-(pyrrolidine-1-carbonyl)piperidine-4-carboxamide], 6.92 nM; for `CCC1(C(=O)N(CC(=O)Nc2ccc3c(c2)C[C@@]2(C3)C(=O)Nc3ncccc32)Cc2ccccc2CNC)CCN(C(=O)N2CCOCC2)CC1` [Example 103, (R)-4-Ethyl-N-(2-((methylamino)methyl)benzyl)-1-(morpholine-4-carbonyl)-N-(2-oxo-2-((2′-oxo-1,1′,2′,3-tetrahydrospiro[indene-2,3′-pyrrolo[2,3-b]pyridin]-5-yl)amino)ethyl)piperidine-4-carboxamide], 2.19 nM.
For `CCC1(C(=O)N(CC(=O)Nc2ccc3c(c2)C[C@@]2(C3)C(=O)Nc3ncccc32)Cc2ccccc2CNC)CCN(C(=O)N2CCCCC2)CC1` [Example 104, (R)-4-Ethyl-N-(2-((methylamino)methyl)benzyl)-N-(2-oxo-2-((2′-oxo-1,1′,2′,3-tetrahydrospiro[indene-2,3′-pyrrolo[2,3-b]pyridin]-5-yl)amino)ethyl)-1-(piperidine-1-carbonyl) piperidine-4-carboxamide] the value was 107 nM; for `CCC1(C(=O)N(CC(=O)Nc2ccc3c(c2)C[C@@]2(C3)C(=O)Nc3ncccc32)Cc2ccccc2CNC)CCN(C(=O)NC23CC(C2)C3)CC1` [Example 105], 50.1 nM; for `CCC1(C(=O)N(CC(=O)Nc2ccc3c(c2)C[C@@]2(C3)C(=O)Nc3ncccc32)Cc2ccccc2CNC)CCN(C(=O)N2CCC2)CC1` [Example 106, (R)-1-(Azetidine-1-carbonyl)-4-ethyl-N-(2-((methylamino)methyl)benzyl)-N-(2-oxo-2-((2′-oxo-1,1′,2′,3-tetrahydrospiro[indene-2,3′-pyrrolo[2,3-b]pyridin]-5-yl)amino)ethyl)piperidine-4-carboxamide], 11.7 nM.
Consider `CCC1(C(=O)N(CC(=O)Nc2ccc3c(c2)C[C@@]2(C3)C(=O)Nc3ncccc32)Cc2ccccc2CNC)CCN(C(=O)N2CCC(F)(F)CC2)CC1` [Example 107, (R)-1-(4,4-Difluoropiperidine-1-carbonyl)-4-ethyl-N-(2-((methylamino)methyl)benzyl)-N-(2-oxo-2-((2′-oxo-1,1′,2′,3-tetrahydrospiro[indene-2,3′-pyrrolo[2,3-b]pyridin]-5-yl)amino)ethyl)piperidine-4-carboxamide], for which the IC50 is 57.5 nM.
For `CCC1(C(=O)N(CC(=O)Nc2ccc3c(c2)C[C@@]2(C3)C(=O)Nc3ncccc32)Cc2ccccc2CNC)CCN(C(=O)N2CCC(F)(F)C2)CC1` [Example 108, (R)-1-(3,3-Difluoropyrrolidine-1-carbonyl)-4-ethyl-N-(2-((methylamino)methyl)benzyl)-N-(2-oxo-2-((2′-oxo-1,1′,2′,3-tetrahydrospiro[indene-2,3′-pyrrolo[2,3-b]pyridin]-5-yl)amino)ethyl)piperidine-4-carboxamide] the value was 24 nM; for `CCC1(C(=O)N(CC(=O)Nc2ccc3c(c2)C[C@@]2(C3)C(=O)Nc3ncccc32)Cc2ccccc2CNC)CCN(C(=O)N2CC(F)(F)C2)CC1` [Example 109, (R)-1-(3,3-Difluoroazetidine-1-carbonyl)-4-ethyl-N-(2-((methylamino)methyl)benzyl)-N-(2-oxo-2-((2′-oxo-1,1′,2′,3-tetrahydrospiro[indene-2,3′-pyrrolo[2,3-b]pyridin]-5-yl)amino)ethyl)piperidine-4-carboxamide], 7940 nM; for `CCC1(C(=O)N(CC(=O)Nc2ccc3c(c2)C[C@@]2(C3)C(=O)Nc3ncccc32)Cc2ccccc2CNC)CCN(C(=O)N2CCC(C(F)(F)F)CC2)CC1` [Example 110, (R)-4-Ethyl-N-(2-((methylamino)methyl)benzyl)-N-(2-oxo-2-((2′-oxo-1,1′,2′,3-tetrahydrospiro[indene-2,3′-pyrrolo[2,3-b]pyridin]-5-yl)amino)ethyl)-1-(4-(trifluoromethyl)piperidine-1-carbonyl)piperidine-4-carboxamide], 93.3 nM.
To `CCC1(C(=O)N(CC(=O)Nc2ccc3c(c2)C[C@@]2(C3)C(=O)Nc3ncccc32)Cc2ccccc2CNC)CCN(C(=O)N2CC(F)C2)CC1` [Example 111, (R)-4-Ethyl-1-(3-fluoroazetidine-1-carbonyl)-N-(2-((methylamino)methyl)benzyl)-N-(2-oxo-2-((2′-oxo-1,1′,2′,3-tetrahydrospiro[indene-2,3′-pyrrolo[2,3-b]pyridin]-5-yl)amino)ethyl)piperidine-4-carboxamide] belongs 15.5 nM.
For `CCC1(C(=O)N(CC(=O)Nc2ccc3c(c2)C[C@@]2(C3)C(=O)Nc3ncccc32)Cc2ccccc2CNC)CCN(C(=O)N2CC(C(F)(F)F)C2)CC1` [Example 112, (R)-4-Ethyl-N-(2-((methylamino)methyl)benzyl)-N-(2-oxo-2-((2′-oxo-1,1′,2′,3-tetrahydrospiro[indene-2,3′-pyrrolo[2,3-b]pyridin]-5-yl)amino)ethyl)-1-(3-(trifluoromethyl)azetidine-1-carbonyl)piperidine-4-carboxamide] the value was 23.4 nM.
Turning to `CCC1(C(=O)N(CC(=O)Nc2ccc3c(c2)C[C@@]2(C3)C(=O)Nc3ncccc32)Cc2ccccc2CNC)CCN(C(=O)NCC(F)(F)F)CC1` [Example 113, (R)-4-Ethyl-N4-(2-((methylamino)methyl)benzyl)-N4-(2-oxo-2-((2′-oxo-1,1′,2′,3-tetrahydrospiro[indene-2,3′-pyrrolo[2,3-b]pyridin]-5-yl)amino)ethyl)-N1-(2,2,2-trifluoroethyl)piperidine-1,4-dicarboxamide], the IC50 is 4.27 nM.
For `CCC1(C(=O)N(CC(=O)Nc2ccc3c(c2)C[C@@]2(C3)C(=O)Nc3ncccc32)Cc2ccccc2CNC)CCN(C(=O)OC(C)C)CC1` [Example 114, (R)-Isopropyl 4-ethyl-4-((2-((methylamino)methyl)benzyl)(2-oxo-2-((2′-oxo-1,1′,2′,3-tetrahydrospiro[indene-2,3′-pyrrolo[2,3-b]pyridin]-5-yl)amino)ethyl)carbamoyl)piperidine-1-carboxylate] the value was 69.2 nM.
To `CCOC(=O)N1CCC(CC)(C(=O)N(CC(=O)Nc2ccc3c(c2)C[C@@]2(C3)C(=O)Nc3ncccc32)Cc2ccccc2CNC)CC1` [Example 115, (R)-Ethyl 4-ethyl-4-((2-((methylamino)methyl)benzyl)(2-oxo-2-((2′-oxo-1,1′,2′,3-tetrahydrospiro[indene-2,3′-pyrrolo[2,3-b]pyridin]-5-yl)amino)ethyl)carbamoyl)piperidine-1-carboxylate] belongs 24.5 nM.
To `CCC1(C(=O)N(CC(=O)Nc2ccc3c(c2)C[C@@]2(C3)C(=O)Nc3ncccc32)Cc2ccccc2CNC)CCN(C(=O)OC)CC1` [Example 116, (R)-Methyl 4-ethyl-4-((2-((methylamino)methyl)benzyl)(2-oxo-2-((2′-oxo-1,1′,2′,3-tetrahydrospiro[indene-2,3′-pyrrolo[2,3-b]pyridin]-5-yl)amino)ethyl)carbamoyl)piperidine-1-carboxylate] belongs 20 nM.
Regarding `CCC1(C(=O)N(CC(=O)Nc2ccc3c(c2)C[C@@]2(C3)C(=O)Nc3ncccc32)Cc2ccccc2CNC)CCN(S(=O)(=O)NC)CC1` [Example 117, (R)-4-Ethyl-N-(2-((methylamino)methyl)benzyl)-1-(N-methylsulfamoyl)-N-(2-oxo-2-((2′-oxo-1,1′,2′,3-tetrahydrospiro[indene-2,3′-pyrrolo[2,3-b]pyridin]-5-yl)amino)ethyl)piperidine-4-carboxamide], the IC50 was 4.57 nM.

Source of the values: patent publication US20230036854A1, “HETEROCYCLIC SPIRO-COMPOUNDS AS AM2 RECEPTOR INHIBITORS” (THE UNIVERSITY OF SHEFFIELD, priority 2018, published 2023).
